According to PubChem BioAssay AID504625 (Southern Research Specialized Biocontainment Screening …, 2011):

System: human PBMC, HIV-1 X4 replication, supernatant RT activity
Test: inhibitors of X4-tropic HIV-1 replication in PBMC, dose response, cell-based, human PBMC, set 3 (AID 504625)

SMILES: Cc1c2c(=O)n(-c3nc4ccccc4s3)nc-2cc(O)n1Cc1ccccc1
- IC50: 1510 nM
